Test results reported in US9969698B2, “Quinoxalinyl-piperazinamide methods of use” (REXAHN PHARMACEUTICALS, INC., priority 2015, dated 2018).
Like-named read-outs stand apart in the source and are kept apart here.

Experiments:
[1] = Human safety and tolerability, dose-ranging study; assay type: in vivo; conditions: oral capsules
Experimental: (§1) In a dose-ranging study, the pharmacokinetics (PK), safety and tolerability of RX-5902 at various oral doses were evaluated. Subjects with advanced or metastatic solid tumors were administered capsules containing RX-5902 at daily doses of 25-775 mg once weekly, 250-300 mg three times a week, 150-300 mg five times a week, or 300-350 mg seven times a week of RX-5902 for up to 6 dosing cycles. Each cycle consisting of 1-5 doses of RX-5902 per week for 3 weeks followed by 1 week of rest, or 5-7 doses of RX-5902 per week for 4 weeks without any rest per 4-week cycle. All but one subject had fasted from food for at least 8 hours before administration. One subject received 300 mg RX-5902 in fed state. Plasma concentrations were measured on Days 1 and 15, for 48 hrs, using a validated LC-MS/MS assay, and noncompartmental pharmacokinetic parameters were calculated using Phoenix WinNonlin, Version 6.4.

[2] = Human pharmacokinetics, dose-ranging study; assay type: in vivo; conditions: for AUC(0-t) / Cmax / half-life / Tmax: human, plasma, po, oral capsule, fasted; for Cmax: read-out: Cmax; for half-life: read-out: T1/2 (converted); for Tmax: read-out: Tmax
Experimental: as §1
Preliminary PK data after a single administration is presented in FIG. 1 (for Subjects #1-11) and Table 3.

[3] = 25 mg, 25 mg, 1 per week, Day 1
[4] = 50 mg, 50 mg, 1 per week, Day 1
[5] = 100 mg, 100 mg, 1 per week, Day 1
[6] = 150 mg, 150 mg, 1 per week, Day 1
[7] = 150 mg, 150 mg, 5 per week, Day 1
[8] = 150 mg, 150 mg, 5 per week, Day 15
[9] = 200 mg, 200 mg, 5 per week, Day 1
[10] = 200 mg, 200 mg, 5 per week, Day 15
[11] = 225 mg, 225 mg, 1 per week, Day 1
[12] = 250 mg, 250 mg, 3 per week, Day 1
[13] = 250 mg, 250 mg, 3 per week, Day 15

For `COc1cc(OC)cc(N2CCN(C(=O)Nc3nc4cc(F)ccc4nc3OC)CC2)c1` [RX-5902, 4-(3,5-dimethoxyphenyl)-N-(7-fluoro-3-methoxyquinoxalin-2-yl)piperazine-1-carboxamide], the “most frequently reported adverse events” value ([1]; 25-775 mg) was “mild nausea, vomiting and fatigue”, the tolerability ([1]; at the tested dose levels (25-775 mg)) was “well tolerated” and the “exposure in fed state compared to fasted state” value ([2]; 300 mg oral, one fed subject) was “significantly higher exposure”. It also gave an AUC(0-t) ([2]; 25 mg, 25 mg, 1 per week, Day 1, read-out: AUC0-24) of 830 ng·h/mL, an AUC(0-t) ([2]; 25 mg, 25 mg, 1 per week, Day 1, read-out: AUC0-48) of 894 ng·h/mL and a Cmax [2, 3] of 99.1 ng/mL. It also gave a half-life [2, 3] of 5.8 h, a Tmax [2, 3] of 6 h and an AUC(0-t) ([2]; 50 mg, 50 mg, 1 per week, Day 1, read-out: AUC0-24) of 1030 ng·h/mL. The AUC(0-t) ([2]; 50 mg, 50 mg, 1 per week, Day 1, read-out: AUC0-48) was 1310 ng·h/mL, the Cmax [2, 4] was 109 ng/mL and the half-life [2, 4] was 13.2 h. The Tmax [2, 4] was 1.5 h, the AUC(0-t) ([2]; 100 mg, 100 mg, 1 per week, Day 1, read-out: AUC0-24) was 1780 ng·h/mL and the AUC(0-t) ([2]; 100 mg, 100 mg, 1 per week, Day 1, read-out: AUC0-48) was 2340 ng·h/mL. For the same molecule, the Cmax [2, 5] was 252 ng/mL, the half-life [2, 5] was 27.6 h and the Tmax [2, 5] was 2 h. For the same molecule, the AUC(0-t) ([2]; 150 mg, 150 mg, 1 per week, Day 1, read-out: AUC0-24) was 2690 ng·h/mL, the AUC(0-t) ([2]; 150 mg, 150 mg, 1 per week, Day 1, read-out: AUC0-48) was 3280 ng·h/mL and the Cmax [2, 6] was 226 ng/mL. For the same molecule, the half-life [2, 6] was 11.5 h, the Tmax [2, 6] was 6 h and the AUC(0-t) ([2]; 150 mg, 150 mg, 5 per week, Day 1, read-out: AUC0-24) was 2150 ng·h/mL. The Cmax [2, 7] was 227 ng/mL, the Tmax [2, 7] was 2 h and the AUC(0-t) ([2]; 150 mg, 150 mg, 5 per week, Day 15, read-out: AUC0-24) was 3720 ng·h/mL. It also gave a Cmax [2, 8] of 347 ng/mL, a Tmax [2, 8] of 1 h and an AUC(0-t) ([2]; 200 mg, 200 mg, 5 per week, Day 1, read-out: AUC0-24) of 2750 ng·h/mL. It also gave a Cmax [2, 9] of 337 ng/mL, a half-life [2, 9] of 8.5 h and a Tmax [2, 9] of 4 h. For the same molecule, the AUC(0-t) ([2]; 200 mg, 200 mg, 5 per week, Day 15, read-out: AUC0-24) was 4030 ng·h/mL, the Cmax [2, 10] was 440 ng/mL and the Tmax [2, 10] was 2 h. The AUC(0-t) ([2]; 225 mg, 225 mg, 1 per week, Day 1, read-out: AUC0-24) was 3420 ng·h/mL, the AUC(0-t) ([2]; 225 mg, 225 mg, 1 per week, Day 1, read-out: AUC0-48) was 4310 ng·h/mL and the Cmax [2, 11] was 364 ng/mL. For the same molecule, the half-life [2, 11] was 12 h, the Tmax [2, 11] was 4 h and the AUC(0-t) ([2]; 250 mg, 250 mg, 3 per week, Day 1, read-out: AUC0-24) was 3980 ng·h/mL. For the same molecule, the AUC(0-t) ([2]; 250 mg, 250 mg, 3 per week, Day 1, read-out: AUC0-48) was 5210 ng·h/mL, the Cmax [2, 12] was 394 ng/mL and the half-life [2, 12] was 14 h. It also gave a Tmax [2, 12] of 2 h, an AUC(0-t) ([2]; 250 mg, 250 mg, 3 per week, Day 15, read-out: AUC0-24) of 4810 ng·h/mL and an AUC(0-t) ([2]; 250 mg, 250 mg, 3 per week, Day 15, read-out: AUC0-48) of 7770 ng·h/mL. The Cmax [2, 13] was 403 ng/mL, the Tmax [2, 13] was 2 h and the AUC(0-t) ([2]; 300 mg, 300 mg, 1 per week, Day 1, read-out: AUC0-24) was 4680 ng·h/mL. The AUC(0-t) ([2]; 300 mg, 300 mg, 1 per week, Day 1, read-out: AUC0-48) was 6140 ng·h/mL and the Cmax ([2]; 300 mg, 300 mg, 1 per week, Day 1) was 318 ng/mL.
